According to PMC6366416, “Synthesis and in vitro anticancer activity of certain novel 1-(2-methyl-6-arylpyridin-3-yl)-3-phenylureas as apoptosis-inducing agents” (Journal of Enzyme Inhibition and Medicinal Chemistry, 2019):

Columns and labels:
Assay in all cases: NCI one-dose SRB growth inhibition
Assay type in all cases: cell-based
HOP-92 = conditions: Homo sapiens, Non-Small Cell Lung Cancer, 48 h, read-out: GI% HOP-92
How it was run: (§1)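 Drug exposure lasted 48 h. Viability and proliferation were then scored with sulforhodamine B, per the National Cancer Institute screening protocol.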

COLO 205 = conditions: Homo sapiens, Colon Cancer, 48 h, read-out: GI% COLO 205
How it was run: as §1

IGROV1 = conditions: Homo sapiens, IGROV-1, Ovarian Cancer, 48 h, read-out: GI% IGROV1
How it was run: as §1

UO-31 = conditions: Homo sapiens, Renal Cancer, 48 h, read-out: GI% UO-31
How it was run: as §1

SNB-75 = conditions: Homo sapiens, CNS Cancer, 48 h, read-out: GI% SNB-75
How it was run: as §1

T-47D = conditions: Homo sapiens, T47D, 48 h, Breast Cancer, read-out: GI% T-47D
How it was run: as §1

LOX IMVI = conditions: Homo sapiens, Melanoma, 48 h, read-out: GI% LOX IMVI
How it was run: as §1

A549/ATCC = conditions: Homo sapiens, A549, 48 h, Non-Small Cell Lung Cancer, read-out: GI% A549/ATCC
How it was run: as §1

KM12 = conditions: Homo sapiens, Colon Cancer, 48 h, read-out: GI% KM12
How it was run: as §1

NCI-H522 = conditions: Homo sapiens, NCI-H522, 48 h, Non-Small Cell Lung Cancer, read-out: GI% NCI-H522
How it was run: as §1

SK-MEL-5 = conditions: Homo sapiens, Melanoma, 48 h, read-out: GI% SK-MEL-5
How it was run: as §1

SW-620 = conditions: Homo sapiens, Colon Cancer, 48 h, read-out: GI% SW-620
How it was run: as §1

PC-3 = conditions: Homo sapiens, PC-3, 48 h, Prostate, read-out: GI% PC-3
How it was run: as §1

RXF 393 = conditions: Homo sapiens, Renal Cancer, 48 h, read-out: GI% RXF 393
How it was run: as §1

SK-OV-3 = conditions: Homo sapiens, Ovarian Cancer, 48 h, read-out: GI% SK-OV-3
How it was run: as §1

MOLT-4 = conditions: Homo sapiens, Leukemia, 48 h, read-out: GI% MOLT-4
How it was run: as §1

OVCAR-5 = conditions: Homo sapiens, Ovarian Cancer, 48 h, read-out: GI% OVCAR-5
How it was run: as §1

SR = conditions: Homo sapiens, 48 h, Leukemia, read-out: GI% SR
How it was run: as §1

CCRF-CEM = conditions: Homo sapiens, Leukemia, 48 h, read-out: GI% CCRF-CEM
How it was run: as §1

UACC-257 = conditions: Homo sapiens, UACC-257, read-out: GI% UACC-257, Melanoma, 48 h
How it was run: as §1

SN12C = conditions: Homo sapiens, Renal Cancer, 48 h, read-out: GI% SN12C
How it was run: as §1

SF-539 = conditions: Homo sapiens, CNS Cancer, 48 h, read-out: GI% SF-539
How it was run: as §1

BT-549 = conditions: Homo sapiens, Breast Cancer, 48 h, read-out: GI% BT-549
How it was run: as §1

NCI-H460 = conditions: Homo sapiens, Non-Small Cell Lung Cancer, 48 h, read-out: GI% NCI-H460
How it was run: as §1

NCI/ADR-RES = conditions: Homo sapiens, Ovarian Cancer, 48 h, read-out: GI% NCI/ADR-RES
How it was run: as §1

DU-145 = conditions: Homo sapiens, Prostate, 48 h, read-out: GI% DU-145
How it was run: as §1

NCI-H226 = conditions: Homo sapiens, Non-Small Cell Lung Cancer, 48 h, read-out: GI% NCI-H226
How it was run: as §1

A498 = conditions: Homo sapiens, Renal Cancer, 48 h, read-out: GI% A498
How it was run: as §1

MDA-MB-435 = conditions: Homo sapiens, Melanoma, 48 h, read-out: GI% MDA-MB-435
How it was run: as §1

OVCAR-8 = conditions: Homo sapiens, Ovarian Cancer, 48 h, read-out: GI% OVCAR-8
How it was run: as §1

RPMI-8226 = conditions: Homo sapiens, RPMI-8226, 48 h, Leukemia, read-out: GI% RPMI-8226
How it was run: as §1

SK-MEL-2 = conditions: Homo sapiens, Melanoma, 48 h, read-out: GI% SK-MEL-2
How it was run: as §1

UACC-62 = conditions: Homo sapiens, UACC-62, 48 h, Melanoma, read-out: GI% UACC-62
How it was run: as §1

Structure (SMILES) | inhibition at 10 µM (HOP-92) [%] | inhibition at 10 µM (COLO 205) [%] | inhibition at 10 µM (IGROV1) [%] | inhibition at 10 µM (UO-31) [%] | inhibition at 10 µM (SNB-75) [%] | inhibition at 10 µM (T-47D) [%] | inhibition at 10 µM (LOX IMVI) [%] | inhibition at 10 µM (A549/ATCC) [%] | inhibition at 10 µM (KM12) [%] | inhibition at 10 µM (NCI-H522) [%] | inhibition at 10 µM (SK-MEL-5) [%] | inhibition at 10 µM (SW-620) [%] | inhibition at 10 µM (PC-3) [%] | inhibition at 10 µM (RXF 393) [%] | inhibition at 10 µM (SK-OV-3) [%] | inhibition at 10 µM (MOLT-4) [%] | inhibition at 10 µM (OVCAR-5) [%] | inhibition at 10 µM (SR) [%] | inhibition at 10 µM (CCRF-CEM) [%] | inhibition at 10 µM (UACC-257) [%] | further results
Cc1nc(-c2cccs2)ccc1NC(=O)Nc1ccc(Cl)cc1 [Compound 5i, 1-(4-Chlorophenyl)-3-(2-methyl-6-(thiophen-2-yl)pyridin-3-yl)urea] | < 10 | < 10 | < 10 | < 10 | < 10 | 13 | < 10 | 29 | < 10 | 28 | < 10 | < 10 | < 10 | < 10 | < 10 | 15 | < 10 | < 10 | < 10 | 23 | inhibition at 10 µM (SN12C): < 10%; inhibition at 10 µM (SF-539): < 10%; inhibition at 10 µM (BT-549): < 10%; inhibition at 10 µM (NCI-H460): < 10%; inhibition at 10 µM (NCI/ADR-RES): < 10%; inhibition at 10 µM (DU-145): < 10%; inhibition at 10 µM (NCI-H226): < 10%; inhibition at 10 µM (A498): < 10%; inhibition at 10 µM (MDA-MB-435): < 10%; inhibition at 10 µM (OVCAR-8): < 10%; inhibition at 10 µM (RPMI-8226): < 10%; inhibition at 10 µM (SK-MEL-2): < 10%; inhibition at 10 µM (UACC-62): 19%
Cc1nc(-c2ccc(F)cc2)ccc1NC(=O)Nc1cccc(C(F)(F)F)c1 [Compound 5a, 1-(6-(4-Fluorophenyl)-2-methylpyridin-3-yl)-3-(3-(trifluoromethyl)phenyl)urea] | < 10 | < 10 | < 10 | 15 | < 10 | > 40 | 37 | > 40 | 37 | > 40 | 32 | < 10 | > 40 | < 10 | 13 | 33 | < 10 | > 40 | 25 | 38 | inhibition at 10 µM (SN12C): 26%; inhibition at 10 µM (SF-539): < 10%; inhibition at 10 µM (BT-549): < 10%; inhibition at 10 µM (NCI-H460): 34%; inhibition at 10 µM (NCI/ADR-RES): 20%; inhibition at 10 µM (DU-145): 11%; inhibition at 10 µM (NCI-H226): 18%; inhibition at 10 µM (A498): < 10%; inhibition at 10 µM (MDA-MB-435): 19%; inhibition at 10 µM (OVCAR-8): 29%; inhibition at 10 µM (RPMI-8226): > 40%; inhibition at 10 µM (SK-MEL-2): < 10%; inhibition at 10 µM (UACC-62): > 40%
